The text below walks through data of patent US20260193264A1, “BENZOYPARAZINE PYRAZINES AND THEIR USES” (FOGHORN THERAPEUTICS INC., priority 2022, published 2026).

For assay [1], the target named is T1, HiBit-BRG1 fusion protein in stable HeLa cell line expressing HiBit-BRG1 and LgBit (Homo sapiens, UniProt P51532).
T1 construct: expressed in transfected cells
Put plainly: HiBiT-BRG1 cell-based degradation assay (Nano-Glo HiBiT, 24 h). The note with it: HeLa HiBit-BRG1/LgBit cells; for DC50: read-out: BRMG1 HiBit Degradation IC50; for Dmax: top dose 30 μM, read-out: BRG1 HiBit Degradation Maximum (%). In short, it runs like this:
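Degradation calculated from NanoBiT luminescence relative to DMSO-treated cells (high) and cells given 2 μM known BRM/BRG1 degrader (low). HeLa cells stably expressing HiBiT-BRG1 plus LgBiT were exposed to compound for 24 h before lytic HiBiT detection.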
On the technique in general: With HiBiT, luminescence reflects the tagged protein that the partner subunit can reach.

The target of assay [2] is T2, HiBiT-BRM fusion protein in stable HeLa cell line (Homo sapiens, UniProt P51531).
T2 construct: expressed in transfected cells
Put plainly: HiBiT-BRM cell-based degradation assay (Nano-Glo HiBiT Lytic Detection, 24 h). Set-up: DC50: scale not given here. The following applies: HeLa HiBiT-BRM cells; for DC50: read-out: BRM HiBit Degradation IC50; for BRM HiBit Degradation Maximum (%): top dose 30 μM. In short, it runs like this: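 Percent degradation was scaled between DMSO-treated cells and cells given 2 μM of a known BRM/BRG1 degrader. Readout was NanoBiT luminescence after lytic detection. HeLa cells stably expressing HiBiT-BRM were dosed for 24 h, 10 points, 3-fold steps from 30 μM final, in duplicate.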

Some results are limits rather than exact numbers.

T2 sequence (P51531 whole entry, the tested form may be a part): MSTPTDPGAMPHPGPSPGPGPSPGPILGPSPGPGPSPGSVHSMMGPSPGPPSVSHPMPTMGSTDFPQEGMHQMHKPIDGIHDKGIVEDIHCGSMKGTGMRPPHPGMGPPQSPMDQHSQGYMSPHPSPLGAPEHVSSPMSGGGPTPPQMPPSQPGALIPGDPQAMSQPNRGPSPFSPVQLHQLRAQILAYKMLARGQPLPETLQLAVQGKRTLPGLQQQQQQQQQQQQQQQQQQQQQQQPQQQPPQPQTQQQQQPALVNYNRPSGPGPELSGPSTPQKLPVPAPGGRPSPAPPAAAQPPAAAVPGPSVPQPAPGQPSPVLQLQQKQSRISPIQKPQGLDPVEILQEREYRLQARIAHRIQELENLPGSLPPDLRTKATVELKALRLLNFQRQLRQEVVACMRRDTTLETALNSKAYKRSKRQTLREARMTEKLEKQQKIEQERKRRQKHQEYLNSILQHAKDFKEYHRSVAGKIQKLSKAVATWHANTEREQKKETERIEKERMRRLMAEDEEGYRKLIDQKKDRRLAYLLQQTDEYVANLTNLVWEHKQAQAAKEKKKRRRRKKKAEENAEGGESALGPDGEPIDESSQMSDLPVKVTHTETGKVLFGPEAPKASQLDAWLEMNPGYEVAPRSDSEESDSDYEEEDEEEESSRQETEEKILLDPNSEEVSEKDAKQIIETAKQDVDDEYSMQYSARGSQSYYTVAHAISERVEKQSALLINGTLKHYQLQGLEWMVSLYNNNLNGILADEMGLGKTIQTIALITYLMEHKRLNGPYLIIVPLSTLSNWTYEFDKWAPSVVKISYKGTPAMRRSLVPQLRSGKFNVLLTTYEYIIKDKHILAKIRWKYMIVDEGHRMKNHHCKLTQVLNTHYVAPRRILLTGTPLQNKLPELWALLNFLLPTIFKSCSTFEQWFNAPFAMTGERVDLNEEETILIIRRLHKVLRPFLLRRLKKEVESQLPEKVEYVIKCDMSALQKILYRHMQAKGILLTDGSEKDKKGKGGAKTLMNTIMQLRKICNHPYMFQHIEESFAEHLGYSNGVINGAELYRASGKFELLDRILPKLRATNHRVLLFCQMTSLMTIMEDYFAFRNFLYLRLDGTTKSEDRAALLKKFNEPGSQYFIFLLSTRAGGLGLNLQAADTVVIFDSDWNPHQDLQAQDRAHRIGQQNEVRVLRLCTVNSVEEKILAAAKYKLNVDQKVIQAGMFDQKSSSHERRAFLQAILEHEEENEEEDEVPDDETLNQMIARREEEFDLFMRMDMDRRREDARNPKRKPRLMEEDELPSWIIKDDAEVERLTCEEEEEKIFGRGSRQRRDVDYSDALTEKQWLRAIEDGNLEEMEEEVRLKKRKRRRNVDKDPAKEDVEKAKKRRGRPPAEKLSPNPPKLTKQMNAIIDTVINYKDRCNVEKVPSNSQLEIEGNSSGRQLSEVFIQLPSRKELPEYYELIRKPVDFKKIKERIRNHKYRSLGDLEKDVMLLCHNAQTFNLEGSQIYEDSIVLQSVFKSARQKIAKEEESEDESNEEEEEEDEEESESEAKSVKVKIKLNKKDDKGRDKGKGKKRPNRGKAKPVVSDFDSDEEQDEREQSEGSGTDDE
T1 sequence (P51532 whole entry, the tested form may be a part): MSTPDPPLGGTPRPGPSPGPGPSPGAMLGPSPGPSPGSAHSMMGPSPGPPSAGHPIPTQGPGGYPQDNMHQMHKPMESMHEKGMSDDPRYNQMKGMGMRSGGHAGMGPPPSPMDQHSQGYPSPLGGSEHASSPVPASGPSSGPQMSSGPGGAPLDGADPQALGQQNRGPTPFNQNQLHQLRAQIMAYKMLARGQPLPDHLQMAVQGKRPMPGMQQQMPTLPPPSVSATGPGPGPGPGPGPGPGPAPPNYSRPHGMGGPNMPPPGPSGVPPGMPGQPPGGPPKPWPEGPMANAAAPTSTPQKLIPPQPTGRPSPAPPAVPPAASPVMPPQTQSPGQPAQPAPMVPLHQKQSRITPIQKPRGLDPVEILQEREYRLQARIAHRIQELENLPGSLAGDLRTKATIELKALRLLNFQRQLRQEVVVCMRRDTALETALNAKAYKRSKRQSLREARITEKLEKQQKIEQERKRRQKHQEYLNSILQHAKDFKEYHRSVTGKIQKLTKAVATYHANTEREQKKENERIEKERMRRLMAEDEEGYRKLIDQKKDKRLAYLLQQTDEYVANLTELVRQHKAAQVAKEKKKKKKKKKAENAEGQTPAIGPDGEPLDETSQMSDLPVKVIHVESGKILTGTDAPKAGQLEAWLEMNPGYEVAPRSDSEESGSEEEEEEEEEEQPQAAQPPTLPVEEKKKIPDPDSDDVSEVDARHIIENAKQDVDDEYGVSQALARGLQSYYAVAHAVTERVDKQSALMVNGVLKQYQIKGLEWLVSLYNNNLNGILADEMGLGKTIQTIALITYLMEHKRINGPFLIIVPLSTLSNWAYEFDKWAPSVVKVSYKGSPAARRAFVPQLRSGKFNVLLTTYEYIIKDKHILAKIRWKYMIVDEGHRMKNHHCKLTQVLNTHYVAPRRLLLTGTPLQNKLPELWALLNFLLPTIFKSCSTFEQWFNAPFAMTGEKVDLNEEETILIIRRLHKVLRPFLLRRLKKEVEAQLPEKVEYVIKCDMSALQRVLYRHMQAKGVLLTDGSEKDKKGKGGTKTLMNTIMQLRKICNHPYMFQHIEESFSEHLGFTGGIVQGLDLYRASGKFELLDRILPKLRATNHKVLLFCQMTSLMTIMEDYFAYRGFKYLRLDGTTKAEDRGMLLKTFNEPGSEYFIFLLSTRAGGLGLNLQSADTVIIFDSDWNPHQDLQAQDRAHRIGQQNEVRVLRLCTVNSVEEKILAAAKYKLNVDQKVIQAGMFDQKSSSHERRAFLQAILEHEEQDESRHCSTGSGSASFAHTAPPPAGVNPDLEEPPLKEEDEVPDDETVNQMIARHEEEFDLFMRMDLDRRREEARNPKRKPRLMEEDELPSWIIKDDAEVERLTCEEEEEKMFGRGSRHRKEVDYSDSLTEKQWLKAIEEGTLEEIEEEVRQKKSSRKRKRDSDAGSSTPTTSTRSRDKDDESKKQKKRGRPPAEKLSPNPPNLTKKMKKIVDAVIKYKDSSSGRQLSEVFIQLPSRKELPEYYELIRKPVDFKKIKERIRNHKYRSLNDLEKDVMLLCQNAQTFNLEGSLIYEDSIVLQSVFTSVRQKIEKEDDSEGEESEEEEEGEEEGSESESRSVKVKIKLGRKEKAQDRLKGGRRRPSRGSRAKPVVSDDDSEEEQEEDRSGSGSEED

In the case of `Cc1ncsc1-c1ccc([C@H](C)NC(=O)[C@@H]2C[C@@H](O)CN2C(=O)C(C(C)C)n2cc(N3CCC(C4CN(c5ccc6cc(-c7ccccc7O)nnc6c5)C4)C3)nn2)cc1` (stereo partly drawn) [Compound 235, (2S,4R)-4-hydroxy-1-(2-(4-(3-(1-(3-(2-hydroxyphenyl)cinnolin-7-yl)azetidin-3-yl)pyrrolidin-1-yl)-1H-1,2,3-triazol-1-yl)-3-methylbutanoyl)-N-((S)-1-(4-(4-methylthiazol-5-yl)phenyl)ethyl)pyrrolidine-2-carboxamide], in assay [1], the DC50 is > 10 nM and the Dmax is > 75%. For the same compound, in assay [2], the DC50 is < 10 nM and the “BRM HiBit Degradation Maximum (%)” value is “A (“A” indicates maximum degradation ≥75%)”.
In the case of `Cc1ncsc1-c1ccc([C@H](C)NC(=O)[C@@H]2C[C@@H](O)CN2C(=O)[C@@H](c2cc(-c3cnc(N4CC(c5cc(F)c6cc(-c7ccccc7O)nnc6c5)C4)nc3)no2)C(C)C)cc1` [Compound 28], in assay [1], the Dmax is < 50%. In addition, in assay [2], the DC50 is > 10 nM and the “BRM HiBit Degradation Maximum (%)” value was “A (“A” indicates maximum degradation ≥75%)”.
`Cc1ncsc1-c1ccc([C@H](C)NC(=O)[C@@H]2C[C@@H](O)CN2C(=O)[C@H](c2cc(-c3cnc(N4CCN(c5ccc6cc(-c7ccccc7O)nnc6c5)CC4)nc3)no2)C(C)C)cc1` [Compound 39]: in assay [1], the Dmax is < 50%. Besides, the “BRM HiBit Degradation Maximum (%)” value in assay [2] is given as “C (“C” indicates maximum degradation <50%)”.
Take `CC(C)[C@@H](C(=O)N1C[C@H](O)C[C@H]1C(=O)N[C@@H](C)c1ccc(F)cc1)c1cc(N2CC3(CC(c4cc5nnc(-c6ccccc6O)cc5cc4C#N)C3)C2)no1` [Compound 227, (2S,4R)-1-((R)-2-(3-(6-(6-cyano-3-(2-hydroxyphenyl)cinnolin-7-yl)-2-azaspiro[3.3]heptan-2-yl)isoxazol-5-yl)-3-methylbutanoyl)-N-((S)-1-(4-fluorophenyl)ethyl)-4-hydroxypyrrolidine-2-carboxamide]: in assay [1], the DC50 is > 100 nM and the Dmax is > 50%. Besides, in assay [2], the DC50 is > 100 nM and the “BRM HiBit Degradation Maximum (%)” value was “A (“A” indicates maximum degradation ≥75%)”.
`Cc1ncsc1-c1ccc([C@H](C)NC(=O)[C@@H]2C[C@@H](O)CN2C(=O)C(C(C)C)n2cc(N3CC4CCN(c5ccc6cc(-c7ccccc7O)nnc6c5)CC43)nn2)cc1` (stereo partly drawn) [Compound 249, (2S,4R)-4-hydroxy-1-(2-(4-(3-(3-(2-hydroxyphenyl)cinnolin-7-yl)-3,8-diazabicyclo[4.2.0]octan-8-yl)-1H-1,2,3-triazol-1-yl)-3-methylbutanoyl)-N-((S)-1-(4-(4-methylthiazol-5-yl)phenyl)ethyl)pyrrolidine-2-carboxamide]: in assay [1], the DC50 was > 100 nM and the Dmax is > 75%. In assay [2], the DC50 is > 10 nM and the “BRM HiBit Degradation Maximum (%)” value is “A (“A” indicates maximum degradation ≥75%)”.
The like results for `Cc1ncsc1-c1ccc([C@H](C)NC(=O)[C@@H]2C[C@@H](O)CN2C(=O)[C@@H](c2cc(N3CCC4(CCN(c5ccc6cc(-c7ccccc7O)nnc6c5)CC4)CC3)no2)C(C)C)cc1` [Compound 106, (2S,4R)-4-hydroxy-1-((R)-2-(3-(9-(3-(2-hydroxyphenyl)cinnolin-7-yl)-3,9-diazaspiro [5.5]undecan-3-yl)isoxazol-5-yl)-3-methylbutanoyl)-N-((S)-1-(4-(4-methylthiazol-5-yl)phenyl)ethyl)pyrrolidine-2-carboxamide] were, in that order, < 10 nM, > 75%, < 10 nM and “A (“A” indicates maximum degradation ≥75%)”.
For the compound `CNC(=O)[C@@H]1C[C@@H](O)CN1C(=O)[C@@H](c1cc(N2CC3(CN(c4ccc5nnc(-c6ccccc6O)cc5c4)C3)C2)no1)C(C)C` [Compound 181, (2S,4R)-4-hydroxy-1-((R)-2-(3-(6-(3-(2-hydroxyphenyl)cinnolin-6-yl)-2,6-diazaspiro[3.3]heptan-2-yl)isoxazol-5-yl)-3-methylbutanoyl)-N-methylpyrrolidine-2-carboxamide], in assay [1], the Dmax is < 50%. Besides, in assay [2], the DC50 was > 100 nM and the “BRM HiBit Degradation Maximum (%)” value is recorded as “A (“A” indicates maximum degradation ≥75%)”.
Take `COC[C@H]1CN(c2cc([C@H](C(=O)N3C[C@H](O)C[C@H]3C(=O)N[C@@H](C)c3ccc(-c4scnc4C)cc3)C(C)C)on2)CCN1c1ccc2cc(-c3ccccc3O)nnc2c1` [Compound 142, (2S,4R)-4-hydroxy-1-((R)-2-(3-((R)-4-(3-(2-hydroxyphenyl)cinnolin-7-yl)-3-(methoxymethyl)piperazin-1-yl)isoxazol-5-yl)-3-methylbutanoyl)-N-((S)-1-(4-(4-methylthiazol-5-yl)phenyl)ethyl)pyrrolidine-2-carboxamide]: the Dmax in assay [1] was < 50%. Besides, in assay [2], the DC50 is > 10 nM and the “BRM HiBit Degradation Maximum (%)” value is listed as “A (“A” indicates maximum degradation ≥75%)”.
The like results for `C#Cc1ccc([C@H](C)NC(=O)[C@@H]2C[C@@H](O)CN2C(=O)[C@@H](c2cc(N3CC4(CN(c5ccc6cc(-c7ccccc7O)nnc6c5)C4)C3)no2)C(C)C)c(OC)c1` [Compound 273, (2S,4R)-N-((S)-1-(4-ethynyl-2-methoxyphenyl)ethyl)-4-hydroxy-1-((R)-2-(3-(6-(3-(2-hydroxyphenyl)cinnolin-7-yl)-2,6-diazaspiro[3.3]heptan-2-yl)isoxazol-5-yl)-3-methylbutanoyl)pyrrolidine-2-carboxamide] were, in that order, < 50%, < 10 nM and “A (“A” indicates maximum degradation ≥75%)”.
The like results for `Cc1ncsc1-c1ccc([C@H](C)NC(=O)[C@@H]2C[C@@H](O)CN2C(=O)[C@@H](c2cc(N3CC[C@H](c4ccc5nnc(-c6ccccc6O)cc5c4)C3)no2)C(C)C)cc1` [Compound 55, (2S,4R)-4-hydroxy-1-((R)-2-(3-((R)-3-(3-(2-hydroxyphenyl)cinnolin-6-yl)pyrrolidin-1-yl)isoxazol-5-yl)-3-methylbutanoyl)-N-((S)-1-(4-(4-methylthiazol-5-yl)phenyl)ethyl)pyrrolidine-2-carboxamide] were, in that order, < 50%, > 10 nM and “B (“B” indicates maximum degradation ≥50%)”.
The like results for `Cc1ncsc1-c1ccc([C@H](C)NC(=O)[C@@H]2C[C@@H](O)CN2C(=O)[C@@H](c2cc(N3CC4(CN(c5cc(Cl)c6cc(-c7ccccc7O)nnc6c5)C4)C3)no2)C(C)C)cc1` [Compound 163, (2S,4R)-1-((R)-2-(3-(6-(5-chloro-3-(2-hydroxyphenyl)cinnolin-7-yl)-2,6-diazaspiro[3.3]heptan-2-yl)isoxazol-5-yl)-3-methylbutanoyl)-4-hydroxy-N-((S)-1-(4-(4-methylthiazol-5-yl)phenyl)ethyl)pyrrolidine-2-carboxamide] were, in that order, < 50%, < 10 nM and “A (“A” indicates maximum degradation ≥75%)”.
As to `Cc1ncsc1-c1ccc([C@H](C)NC(=O)[C@@H]2C[C@@H](O)CN2C(=O)[C@@H](c2cc(-c3cnc(N4CC(c5cc(C6CC6)c6cc(-c7ccccc7O)nnc6c5)C4)nc3)no2)C(C)C)cc1` [Compound 77, (2S,4R)-1-((R)-2-(3-(2-(3-(5-cyclopropyl-3-(2-hydroxyphenyl)cinnolin-7-yl)azetidin-1-yl)pyrimidin-5-yl)isoxazol-5-yl)-3-methylbutanoyl)-4-hydroxy-N-((S)-1-(4-(4-methylthiazol-5-yl)phenyl)ethyl)pyrrolidine-2-carboxamide], in assay [1], the Dmax was < 50%. Besides, in assay [2], the DC50 was < 10 nM and the “BRM HiBit Degradation Maximum (%)” value is on record as “A (“A” indicates maximum degradation ≥75%)”.
The like results for `Cc1ncsc1-c1ccc([C@H](C)NC(=O)[C@@H]2C[C@@H](O)CN2C(=O)[C@@H](c2cc(-c3cnc(N4CC(c5ccc6nnc(-c7ccccc7O)cc6c5Cl)C4)nc3)no2)C(C)C)cc1` [Compound 44] were, in that order, < 50%, > 10 nM and “A (“A” indicates maximum degradation ≥75%)”.
As for `Cc1ncsc1-c1ccc([C@H](C)NC(=O)[C@@H]2C[C@@H](O)CN2C(=O)C(c2cc(N3CCC(C4CN(c5ccc6cc(-c7ccccc7O)nnc6c5)C4)CC3)no2)C(C)C)cc1` (stereo partly drawn) [Compound 225, (2S,4R)-4-hydroxy-1-(2-(3-(4-(1-(3-(2-hydroxyphenyl)cinnolin-7-yl)azetidin-3-yl)piperidin-1-yl)isoxazol-5-yl)-3-methylbutanoyl)-N-((S)-1-(4-(4-methylthiazol-5-yl)phenyl)ethyl)pyrrolidine-2-carboxamide], in assay [1], the DC50 is > 10 nM and the Dmax was > 75%. In assay [2], the DC50 was < 10 nM and the “BRM HiBit Degradation Maximum (%)” value is listed as “A (“A” indicates maximum degradation ≥75%)”.
Turning to `Cc1ncsc1-c1ccc([C@H](C)NC(=O)[C@@H]2C[C@@H](O)CN2C(=O)[C@H](c2cc(N3CCC4(CC3)CC(c3ccc5cc(-c6ccccc6O)nnc5c3)C4)no2)C(C)C)cc1` [Compound 25], the Dmax in assay [1] was < 50%. Further, in assay [2], the DC50 was > 100 nM and the “BRM HiBit Degradation Maximum (%)” value was “B (“B” indicates maximum degradation ≥50%)”.
